Data on 2 compounds can be found in BindingDB's records for patent US12459916 (Bayer Pharma Aktiengesellschaft, 2025).

This test addresses T1, Interleukin-1 receptor-associated kinase 4 (UniProt A0A8C0TG75).
T1 sequence (A0A8C0TG75 whole entry): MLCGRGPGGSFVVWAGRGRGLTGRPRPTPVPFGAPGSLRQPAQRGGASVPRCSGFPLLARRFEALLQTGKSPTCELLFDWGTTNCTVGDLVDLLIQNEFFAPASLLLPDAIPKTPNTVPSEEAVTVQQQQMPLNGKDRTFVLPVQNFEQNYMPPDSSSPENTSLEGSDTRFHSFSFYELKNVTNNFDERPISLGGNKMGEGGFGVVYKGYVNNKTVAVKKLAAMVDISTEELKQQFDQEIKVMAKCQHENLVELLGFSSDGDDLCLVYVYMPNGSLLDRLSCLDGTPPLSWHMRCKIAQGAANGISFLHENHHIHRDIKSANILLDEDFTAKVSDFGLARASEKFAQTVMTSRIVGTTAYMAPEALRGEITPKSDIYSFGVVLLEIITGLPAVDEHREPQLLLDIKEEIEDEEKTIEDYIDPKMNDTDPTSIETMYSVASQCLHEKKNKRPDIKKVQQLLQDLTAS
Description: Canine IRAK4 Kinase Assay.

What is called IC50 is the concentration at which inhibition is half-maximal. Read a high IC50 as weaker potency in that assay.

Description: 50 nl of the respective solution were pipetted into a black low-volume 384-well microtitre plate (Greiner Bio-One, Frickenhausen, Germany), 2 μl of a solution of Irak4 in assay buffer [50 mM HEPES pH 7.5, 5 mM MgCl2, 1.0 mM dithiothreitol, 30 μM activated sodium orthovanadate, 0.1% (w/v) of bovine gamma-globulin (BGG) 0.04% (v/v) nonidet-P40 (Sigma)] were added and the mixture was incubated for 15 min to allow prebinding of the substances to the enzyme prior to the kinase reaction. […] The concentration of the Irak4 was adjusted to the respective activity of the enzyme and set such that the assay was carried out in the linear range. Typical concentrations were in the order of about 0.1 nM.

For the compound `CC(C)(O)CCn1cc2cc(NC(=O)c3cccc(C(F)F)n3)c(C(C)(C)O)cc2n1` [US12459916, Example 13], the concentration for half-maximal inhibition (IC50) turned out to be 1.75 nM.

Take `Cc1nc(C(=O)Nc2cc3cn(CCC(C)(C)O)nc3cc2C(C)(C)O)ccc1F` [US12459916, Example 19]: the IC50 was determined as 8.46 nM.
